Laboratory results as given in patent US20160000750A1, “COMBINATION OF EGCG OR METHYLATED EGCG AND A PDE INHIBITOR” (KYUSHU UNIVERSITY, NATIONAL UNIVERSITY CORPORATION, priority 2010, published 2016).

System: human multiple myeloma cell line, U266
Experiment: Trypan blue cell viability and viable cell count, U266
Format: cell-based
Details: vardenafil 5 μM, EGCG 5 μM added after 3 hours, 96 hours
Procedure: A human multiple myeloma cell line, U266, was subcultured in an RPMI 1640 medium (NISSUI PHARMACEUTICAL Co. LTD., Tokyo) supplemented with 10% fetal calf serum (FCS) (BIOLOGICAL INDUSTRIES) at 37° C. under vapor-saturated 5% CO2 conditions. The cells were cultured in the logarithmic growth phase. A human acute myeloid leukemia cell line, HL60, was subcultured in an RPMI 1640 medium supplemented with 10% fetal calf serum (FCS) at 37° C. under vapor-saturated 5% CO2 conditions. The cells were cultured in the logarithmic growth phase. […]
The plate was returned to the incubator immediately after the addition of EGCG, followed by culturing for 96 hours. […] After 10 minutes, the number of the cells was counted with a hemocytometer (Becton, Dickinson and Company). Unstained cells were deemed as viable cells, and the cell viability was determined as a ratio of the number of unstained cells in trypan blue staining to the total number of cells. […]

(−)-epigallocatechin-3-O-gallate [EGCG]
cell viability (cell-killing activity): any cytotoxicity was not observed
